Experimental findings from ChEMBL document CHEMBL5465560, “Selectivity Literature for EUbOPEN Chemogenomic Library” (2024) are described below.

Assay [1] concerns the target Tyrosine-protein kinase Fyn (Homo sapiens) (UniProt P06241). The assay is described as follows: Selectivity interaction (ProQinase) EUB0000171b FYN.
The target of assay [2] is Cyclin-dependent kinase 7 (Homo sapiens, UniProt P50613). Briefly: Selectivity interaction (KinomeScan (DiscoverX)) EUB0001079a CDK7. The settings on record: at 1 µM.
Assay [3] deals with T1, Inhibitor of nuclear factor kappa-B kinase subunit alpha (Homo sapiens) (UniProt O15111).
T1 sequence (whole entry): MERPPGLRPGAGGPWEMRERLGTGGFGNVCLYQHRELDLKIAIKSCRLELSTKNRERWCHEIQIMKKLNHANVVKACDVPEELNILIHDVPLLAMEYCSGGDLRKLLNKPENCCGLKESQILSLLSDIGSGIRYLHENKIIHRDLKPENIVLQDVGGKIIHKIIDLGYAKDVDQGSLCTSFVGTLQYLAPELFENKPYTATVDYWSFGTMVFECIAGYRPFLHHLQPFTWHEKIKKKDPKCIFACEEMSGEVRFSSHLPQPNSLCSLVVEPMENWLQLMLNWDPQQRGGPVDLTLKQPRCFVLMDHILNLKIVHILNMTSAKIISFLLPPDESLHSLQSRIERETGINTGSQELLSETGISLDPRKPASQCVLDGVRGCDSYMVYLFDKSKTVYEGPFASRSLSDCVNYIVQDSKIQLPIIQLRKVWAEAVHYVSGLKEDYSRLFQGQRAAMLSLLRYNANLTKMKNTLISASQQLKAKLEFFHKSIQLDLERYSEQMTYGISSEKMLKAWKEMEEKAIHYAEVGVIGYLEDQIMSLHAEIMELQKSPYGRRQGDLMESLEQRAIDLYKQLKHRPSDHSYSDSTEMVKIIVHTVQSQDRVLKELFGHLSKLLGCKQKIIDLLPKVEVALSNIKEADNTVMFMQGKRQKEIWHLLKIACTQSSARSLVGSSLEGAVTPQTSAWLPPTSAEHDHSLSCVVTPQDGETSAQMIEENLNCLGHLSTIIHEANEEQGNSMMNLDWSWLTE
Briefly: Selectivity interaction (KinomeScan (DiscoverX)) EUB0001049a CHUK. The settings on record: at 1 µM.

Assay [4] addresses Bone morphogenetic protein receptor type-1B (Homo sapiens, UniProt O00238). Briefly: Selectivity interaction (KinomeScan (DiscoverX)) EUB0001049a BMPR1B. The settings on record: at 1 µM.
Assay [5] deals with Cyclin-dependent kinase-like 3 (Homo sapiens) (UniProt Q8IVW4). Briefly: Selectivity interaction (KinomeScan (DiscoverX)) EUB0000045b CDKL3.
In assay [6] the target is Calcium/calmodulin-dependent protein kinase type II subunit alpha (Homo sapiens, UniProt Q9UQM7). Briefly: Selectivity interaction (KinomeScan (DiscoverX)) EUB0000045b CAMK2A.
In assay [7] the target is Dual specificity protein kinase CLK1 (Homo sapiens, UniProt P49759). The assay is described as follows: Selectivity interaction (Kinase panel (Z-LYTE Assay)) EUB0001632a CLK1. The settings on record: at 10 µM.
Assay [8] concerns the target T2, Cytoplasmic tyrosine-protein kinase BMX (Homo sapiens) (UniProt P51813).
T2 sequence (whole entry): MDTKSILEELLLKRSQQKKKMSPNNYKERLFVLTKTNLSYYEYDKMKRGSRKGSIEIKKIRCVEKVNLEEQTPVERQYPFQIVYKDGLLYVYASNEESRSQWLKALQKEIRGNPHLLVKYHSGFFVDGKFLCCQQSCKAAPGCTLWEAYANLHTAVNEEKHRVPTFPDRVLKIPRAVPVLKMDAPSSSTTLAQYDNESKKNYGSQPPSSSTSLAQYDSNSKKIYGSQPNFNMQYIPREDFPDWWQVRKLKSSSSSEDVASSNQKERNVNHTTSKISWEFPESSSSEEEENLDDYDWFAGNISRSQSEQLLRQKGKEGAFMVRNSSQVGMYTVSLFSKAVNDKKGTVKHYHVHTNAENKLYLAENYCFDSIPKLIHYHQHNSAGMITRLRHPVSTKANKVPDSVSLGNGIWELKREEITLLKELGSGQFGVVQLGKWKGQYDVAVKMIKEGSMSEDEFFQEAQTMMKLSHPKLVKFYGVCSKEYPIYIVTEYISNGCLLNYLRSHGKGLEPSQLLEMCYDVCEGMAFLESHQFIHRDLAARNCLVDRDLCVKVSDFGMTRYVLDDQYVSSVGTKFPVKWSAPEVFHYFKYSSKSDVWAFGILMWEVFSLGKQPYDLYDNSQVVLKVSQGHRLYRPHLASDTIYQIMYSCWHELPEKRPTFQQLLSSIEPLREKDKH
The assay is described as follows: Selectivity interaction (KinomeScan (DiscoverX)) EUB0000607a BMX. The settings on record: at 10 µM.

The target in assay [9] is T3, Serine/threonine-protein kinase BRSK1 (Homo sapiens) (UniProt Q8TDC3).
T3 sequence (whole entry): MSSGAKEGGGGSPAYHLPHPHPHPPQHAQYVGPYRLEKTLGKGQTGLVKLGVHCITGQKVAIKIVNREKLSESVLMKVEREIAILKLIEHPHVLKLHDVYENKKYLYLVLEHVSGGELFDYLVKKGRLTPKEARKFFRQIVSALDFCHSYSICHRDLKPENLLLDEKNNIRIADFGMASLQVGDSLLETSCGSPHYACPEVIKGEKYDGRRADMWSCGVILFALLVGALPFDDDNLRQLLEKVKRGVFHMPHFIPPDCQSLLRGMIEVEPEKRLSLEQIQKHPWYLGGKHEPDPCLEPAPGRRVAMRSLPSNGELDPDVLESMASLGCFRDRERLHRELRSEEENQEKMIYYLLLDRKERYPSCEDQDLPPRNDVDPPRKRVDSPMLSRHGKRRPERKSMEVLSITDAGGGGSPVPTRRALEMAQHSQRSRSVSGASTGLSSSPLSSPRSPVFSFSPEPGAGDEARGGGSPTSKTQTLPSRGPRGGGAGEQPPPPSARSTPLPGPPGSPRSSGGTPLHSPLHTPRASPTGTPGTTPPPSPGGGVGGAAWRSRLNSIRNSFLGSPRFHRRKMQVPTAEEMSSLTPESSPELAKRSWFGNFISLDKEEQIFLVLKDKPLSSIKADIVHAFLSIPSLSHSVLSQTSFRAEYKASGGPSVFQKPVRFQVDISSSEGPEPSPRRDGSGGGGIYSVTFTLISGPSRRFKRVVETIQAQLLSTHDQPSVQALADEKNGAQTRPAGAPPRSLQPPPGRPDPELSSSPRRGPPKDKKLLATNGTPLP
Briefly: Selectivity interaction (Kinase panel (Invitrogen)) EUB0000639a BRSK1. The note with it: at 200 nM.

Assay [10] addresses Serine/threonine-protein kinase 10 (Homo sapiens) (UniProt O94804). Briefly: Selectivity interaction (KinomeScan (DiscoverX)) EUB0001619a STK10. The note with it: at 1 µM.
For assay [11], the target named is Phosphatidylinositol 4-phosphate 3-kinase C2 domain-containing subunit beta (Homo sapiens) (UniProt O00750). The assay is described as follows: Selectivity interaction (Kinase panel (KiNativ target engagement assay in Jurkat cells)) EUB0001635a PIK3C2B. The class given is cell-based. The note with it: Selectivity number of off-targets 0.0, Selectivity number of targets 233.0, Source Knowledge https://www.sciencedirect.com/science/article/pii/S2451945619300674?via%3Dihub, at 1 µM.

The structures appear in SMILES notation.

Chain of Tyrosine-protein kinase Fyn (Homo sapiens) (P06241 2-537 limits assumed): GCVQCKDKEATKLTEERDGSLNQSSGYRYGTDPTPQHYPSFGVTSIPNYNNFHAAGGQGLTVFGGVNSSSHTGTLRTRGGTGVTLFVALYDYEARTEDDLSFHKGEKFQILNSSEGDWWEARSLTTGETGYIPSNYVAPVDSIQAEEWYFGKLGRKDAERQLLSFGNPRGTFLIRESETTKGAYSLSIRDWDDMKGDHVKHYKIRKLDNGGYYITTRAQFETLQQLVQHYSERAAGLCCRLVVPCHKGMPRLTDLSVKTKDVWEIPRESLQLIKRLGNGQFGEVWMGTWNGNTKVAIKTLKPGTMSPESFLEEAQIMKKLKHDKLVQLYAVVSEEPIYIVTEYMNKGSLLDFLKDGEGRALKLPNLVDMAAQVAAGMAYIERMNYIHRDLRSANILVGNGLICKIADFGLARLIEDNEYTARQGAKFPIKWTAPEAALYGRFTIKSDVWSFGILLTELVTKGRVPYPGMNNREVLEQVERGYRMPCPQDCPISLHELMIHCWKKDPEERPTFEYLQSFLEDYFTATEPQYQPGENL
Chain of Cyclin-dependent kinase-like 3 (Homo sapiens) (Q8IVW4 whole entry, looked up): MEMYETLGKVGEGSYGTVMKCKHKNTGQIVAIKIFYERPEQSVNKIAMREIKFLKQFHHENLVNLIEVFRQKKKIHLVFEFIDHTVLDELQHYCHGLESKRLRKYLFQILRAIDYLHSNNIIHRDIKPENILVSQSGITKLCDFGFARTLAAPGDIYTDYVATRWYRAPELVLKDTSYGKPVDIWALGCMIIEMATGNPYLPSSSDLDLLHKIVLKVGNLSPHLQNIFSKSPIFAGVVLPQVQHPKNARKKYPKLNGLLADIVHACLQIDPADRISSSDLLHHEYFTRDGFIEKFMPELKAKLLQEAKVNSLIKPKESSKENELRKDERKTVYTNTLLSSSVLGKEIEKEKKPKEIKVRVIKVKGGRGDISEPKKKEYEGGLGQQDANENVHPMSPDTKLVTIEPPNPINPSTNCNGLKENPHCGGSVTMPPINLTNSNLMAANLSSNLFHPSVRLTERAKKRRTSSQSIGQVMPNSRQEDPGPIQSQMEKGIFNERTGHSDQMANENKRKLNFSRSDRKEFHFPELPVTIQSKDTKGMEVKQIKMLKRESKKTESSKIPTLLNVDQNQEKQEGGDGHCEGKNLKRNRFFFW
Chain of Calcium/calmodulin-dependent protein kinase type II subunit alpha (Q9UQM7 whole entry): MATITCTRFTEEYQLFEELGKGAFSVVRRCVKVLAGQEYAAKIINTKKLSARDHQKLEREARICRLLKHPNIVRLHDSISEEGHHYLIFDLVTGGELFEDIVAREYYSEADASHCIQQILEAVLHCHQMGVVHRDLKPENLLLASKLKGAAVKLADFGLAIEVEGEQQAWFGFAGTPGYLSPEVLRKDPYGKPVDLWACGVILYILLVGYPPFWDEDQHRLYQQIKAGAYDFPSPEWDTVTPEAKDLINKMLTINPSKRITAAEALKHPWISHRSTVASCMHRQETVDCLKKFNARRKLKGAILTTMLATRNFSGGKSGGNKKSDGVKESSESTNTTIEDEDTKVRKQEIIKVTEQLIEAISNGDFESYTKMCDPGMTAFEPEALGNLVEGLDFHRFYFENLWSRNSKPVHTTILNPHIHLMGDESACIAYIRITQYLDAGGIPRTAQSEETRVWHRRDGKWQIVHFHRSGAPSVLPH
Chain of Cyclin-dependent kinase 7 (P50613 whole entry): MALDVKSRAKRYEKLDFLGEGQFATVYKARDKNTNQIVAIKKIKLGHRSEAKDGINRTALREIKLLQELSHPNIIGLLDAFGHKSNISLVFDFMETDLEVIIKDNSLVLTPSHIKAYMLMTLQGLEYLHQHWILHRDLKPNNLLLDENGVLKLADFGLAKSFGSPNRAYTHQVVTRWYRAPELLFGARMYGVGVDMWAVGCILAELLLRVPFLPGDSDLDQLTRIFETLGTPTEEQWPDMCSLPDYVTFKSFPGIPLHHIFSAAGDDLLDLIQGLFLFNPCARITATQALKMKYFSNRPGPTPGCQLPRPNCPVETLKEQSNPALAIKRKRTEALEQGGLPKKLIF
Chain of Bone morphogenetic protein receptor type-1B (O00238 whole entry): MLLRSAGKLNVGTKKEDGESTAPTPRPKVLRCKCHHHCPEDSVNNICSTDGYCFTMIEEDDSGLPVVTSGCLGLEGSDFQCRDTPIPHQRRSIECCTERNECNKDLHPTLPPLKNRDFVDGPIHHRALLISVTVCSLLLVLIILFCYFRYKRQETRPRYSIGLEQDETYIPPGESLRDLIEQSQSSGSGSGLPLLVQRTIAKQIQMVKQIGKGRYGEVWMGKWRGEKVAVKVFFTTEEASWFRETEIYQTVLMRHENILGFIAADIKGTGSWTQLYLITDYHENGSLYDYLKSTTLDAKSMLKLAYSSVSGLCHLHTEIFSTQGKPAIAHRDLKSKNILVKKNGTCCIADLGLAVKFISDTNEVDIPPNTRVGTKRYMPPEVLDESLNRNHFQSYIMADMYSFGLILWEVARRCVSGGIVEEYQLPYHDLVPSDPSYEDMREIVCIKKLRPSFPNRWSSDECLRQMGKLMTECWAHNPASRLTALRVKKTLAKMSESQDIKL
Chain of Dual specificity protein kinase CLK1 (P49759 whole entry, looked up): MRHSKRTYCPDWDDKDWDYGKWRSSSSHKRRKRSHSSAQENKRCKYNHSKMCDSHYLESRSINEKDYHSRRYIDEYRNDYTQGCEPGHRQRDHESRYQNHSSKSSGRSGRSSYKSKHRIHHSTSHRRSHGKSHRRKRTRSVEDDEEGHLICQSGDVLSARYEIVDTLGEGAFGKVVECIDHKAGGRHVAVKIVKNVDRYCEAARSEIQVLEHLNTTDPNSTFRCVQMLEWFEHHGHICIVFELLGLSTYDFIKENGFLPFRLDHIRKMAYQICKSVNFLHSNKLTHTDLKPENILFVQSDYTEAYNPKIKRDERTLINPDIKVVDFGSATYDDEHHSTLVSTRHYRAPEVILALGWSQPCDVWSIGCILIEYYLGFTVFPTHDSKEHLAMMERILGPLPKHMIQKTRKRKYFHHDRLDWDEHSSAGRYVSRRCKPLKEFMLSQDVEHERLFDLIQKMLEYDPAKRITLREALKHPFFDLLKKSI
Chain of Serine/threonine-protein kinase 10 (Homo sapiens) (O94804 whole entry, looked up, the tested form may be a part): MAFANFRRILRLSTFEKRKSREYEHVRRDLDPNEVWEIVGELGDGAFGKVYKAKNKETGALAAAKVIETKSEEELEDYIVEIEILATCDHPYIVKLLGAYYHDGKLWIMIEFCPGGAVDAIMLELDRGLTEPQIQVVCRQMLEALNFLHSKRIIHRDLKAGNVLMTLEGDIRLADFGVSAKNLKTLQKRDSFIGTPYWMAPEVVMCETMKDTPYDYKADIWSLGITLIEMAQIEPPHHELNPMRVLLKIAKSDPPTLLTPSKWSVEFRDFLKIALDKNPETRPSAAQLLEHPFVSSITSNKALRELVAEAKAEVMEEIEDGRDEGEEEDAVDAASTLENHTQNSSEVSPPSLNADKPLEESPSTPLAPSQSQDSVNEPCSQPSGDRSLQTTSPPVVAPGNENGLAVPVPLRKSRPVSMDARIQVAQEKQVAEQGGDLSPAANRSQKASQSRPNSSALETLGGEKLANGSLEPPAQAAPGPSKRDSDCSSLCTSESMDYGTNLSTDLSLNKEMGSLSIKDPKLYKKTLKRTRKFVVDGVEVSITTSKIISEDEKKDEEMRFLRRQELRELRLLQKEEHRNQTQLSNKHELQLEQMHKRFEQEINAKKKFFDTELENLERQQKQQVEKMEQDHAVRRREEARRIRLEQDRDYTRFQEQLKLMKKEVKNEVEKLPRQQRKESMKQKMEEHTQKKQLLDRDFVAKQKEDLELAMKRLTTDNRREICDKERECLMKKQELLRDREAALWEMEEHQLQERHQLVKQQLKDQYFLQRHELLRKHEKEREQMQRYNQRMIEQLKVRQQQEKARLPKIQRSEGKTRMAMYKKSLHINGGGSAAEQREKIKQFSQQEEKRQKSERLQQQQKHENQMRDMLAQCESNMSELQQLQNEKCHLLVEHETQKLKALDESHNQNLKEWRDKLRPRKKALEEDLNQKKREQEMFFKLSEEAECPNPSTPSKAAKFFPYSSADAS

With `C=CC(=O)Nc1cccc(C(=O)Nc2ccc(Nc3cc(-c4[nH]c(SC)nc4C)ccn3)cc2)c1`, the % of control in assay [1] (at 1 µM) turned out to be 101%; in assay [1] (at 5 µM), 100%. Take `Nc1cnc(N2CCc3cc(S(=O)(=O)Nc4c(F)cc(Cl)cc4F)cc(N4CCCC4=O)c32)nc1` [TP-020n]: the % of control in assay [2] was determined as 100%.

On to `COc1cc(Nc2nc(C)cc(-c3cnn4nc(OC)ccc34)n2)cc(C(F)(F)F)c1`, for which the % of control in assay [3] was 95%; in [4] it was 81%.

Consider `C=CC(=O)Nc1cc(-n2c(=O)ccc3cnc4ccc(-c5ccc(NS(C)(=O)=O)cc5)cc4c32)ccc1C`, for which the % of control in [5] (at 1 µM) came out at 100%; in [5] (at 10 µM), 96%; in assay [6] (at 1 µM), 98%; in assay [6] (at 10 µM), 69%. With `Cn1cc(-n2cnc3c(NCc4nc5cc(Cl)c(Cl)cc5[nH]4)nc(N4CCOCC4)nc32)cn1`, the % of control in [7] was 8.07%.

Take `CNC(=O)Nc1ccc(-c2nc(N3CC4CCC(C3)O4)c3cnn(C4CCC5(CC4)OCCO5)c3n2)cc1`: the % of control in assay [8] came out at 83%. `CC[C@@H]1[C@H](F)C(=O)N[C@@H]1COc1nccc2cc(C(N)=O)c(OC)cc12` [ZIMLOVISERTIB]: the % of inhibition in assay [9] was determined as 23.6%. Turning to `N#Cc1cccc(-c2c[nH]c3ncnc(N4CCOCC4)c23)c1`, the % of control in assay [10] was 33%. Turning to `C=CC(=O)Nc1ccc(C(=O)Nc2[nH]nc3c2CN(C(=O)N[C@H](CN(C)C)c2ccccc2)C3(C)C)cc1`, the % of engagement in assay [11] was -18.6%.
